We go through one molecule from patent publication US20100222548A1, “METHOD FOR PRODUCING CONDENSATION PRODUCTS FROM N-SUBSTITUTED GLYCINE DERIVATIVES(PEPTOIDS) BY SEQUENTIAL UGI-MULTICOMPONENT REACTIONS” (priority 2006, published 2010).

SMILES strings stand for the structures. Where a SMILES comes first, the peptide text is derived from it. [ ]: non-standard residue; d: D form. Gly(Nα-4-Cl-benzyl) = O=C(O)CNCc1ccc(Cl)cc1; Gly(N-(CH2)3OMe) = COCCCNCC(=O)O; N(iPr)Gly = CC(C)NCC(=O)O

In this test the test system is Vibrio fischeri.

The term IC50 denotes the concentration at which inhibition is half-maximal. Read a high IC50 as weaker potency in that assay. As to `COCCCN(CC(=O)NCC(=O)O)C(=O)CNC(=O)CN(C(=O)CNC(=O)CN(Cc1ccc(Cl)cc1)C(=O)CN)C(C)C` (H-G[Gly(Nα-4-Cl-benzyl)]G[N(iPr)Gly]G[Gly(N-(CH2)3OMe)]G-OH), the IC50 is roughly 10 µM.
